Where “and” joins values, the source holds several entries; their conditions need not be identical. Identical values can stand only once. Entries after “also recorded” stand apart in the source; their conditions may differ. Starred links: 1 amine or outer side, 2 acyl side, 3 side chain; linkers in the order of their positions; H or OH if unused. Non-standard residues stand in square brackets, D forms with d. No end group written: not given here. γGlu = O=C(O)[C@H](CCC(=O)[*:2])N[*:1]
Assays:
Assay type in all cases: in vivo, human
panelists [1] = test: Quantitative sensory evaluation test of kokumi-imparting activity; details: for Strength of Kokumi Impartment, Initial Taste / Strength of Kokumi Impartment, Middle/After Taste: scale -5~0~5, n=4; for Kokumi-imparting strength compared with γ-Glu-Val (in words): in vivo
Experimental: This quantitative sensory evaluation test was carried out as follows: The strength of the kokumi-imparting activity was measured for the cases where the test compound was mixed at concentrations of 0.001 to 0.5 g/dL with distilled water containing sodium glutamate (0.05 g/dL), inosine monophosphate (0.05 g/dL), and sodium chloride (0.5 g/dL). After the test compound was dissolved, samples more acidic than a control with no added test compound were adjusted, before further use, with NaOH to have a pH in a range of ±0.2 from the pH of the control with no added test compound. The sensory evaluation scores were as follows: control: 0 points; strong: 3 points; very strong: 5 points. The sensory evaluation was carried out using n (the number of panelists)=4. Moreover, to clarify the scale, the initial taste and the middle/after taste of γ-[…] at 0.001 g/dL were both set as 3.0 points. The term “middle/after taste” refers to the taste perceived during the period which includes the middle taste and the after taste. For the scoring, a linear scale method was employed. In this method, the score was marked as a position on a straight line showing positions for scores ranging from -5 0 5.

panelists [2] = test: Strength of kokumi-imparting activity by Point of Subjective Equality (PSE), limit-determining technique
Experimental: The intensity of the kokumi-imparting activity of γ-Glu-Abu was determined by Point of Subjective Equality (PSE) according to the limit-determining technique (“Statistical Sensory Examination techniques”, written by SATO Shin, published by Japan Federation of Science and Technology). The sensory evaluation was carried out as follows: Distilled water containing sodium glutamate (0.05 g/dL), inosine monophosphate (0.05 g/dL) and sodium chloride (0.5 g/dL) was used as the solution for the sensory evaluation. […] To determine the concentration of γ-Glu-Val at which the strength of taste is the same as that of a solution obtained by causing the solution for the sensory evaluation to contain 0.005 g/dL of γ-[…] solutions were prepared with a concentration that varied on a 50% logarithmic scale by using a solution obtained by causing the solution for the sensory evaluation, to contain 0.01 g/dL of γ-Glu-Val as a standard. The concentrations of γ-Glu-Val was set to 7 values ranging from 0.0030 to 0.0337 g/dL. After the test substance was dissolved, samples more acidic than the control with no added test substance were adjusted, before further use, with NaOH to have a pH in a range of ±0.2 as compared to the pH of the control with no added test substance. The solutions were presented to eighteen panelists in ascending order of the γ-Glu-Val concentration. The evaluation was carried out until each panelist perceived that the strength was higher than that of the 0.005 g/dL γ-Glu-Abu solution. After a certain interval, the solutions were next presented to the eighteen panelists in descending order of the γ-Glu-Val concentration. The evaluation was carried out until each panelist perceived that the strength was lower than that of the 0.005 g/dL γ-Glu-Abu solution. In this sensory evaluation, the panelists were experienced in the development of food products. When the lower and upper threshold values were the same, there was no γ-Glu-Val concentration at which the difference between the perception that the strength was lower, and the perception that the strength was higher, was uncertain. […] Each confidence threshold (average) is an average of the lower thresholds and the upper thresholds. The point of subjective equality (PSE) of γ-Glu-Val to 50 ppm (0.0050 g/dL) of γ-Glu-Abu is expressed as follows: (the sum of the confidence threshold of the lower thresholds and that of the upper threshold value)/2.

panelists [3] = test: Quantitative sensory evaluation test of salty taste enhancement
Experimental: After the test compound was dissolved, samples more acidic than a control containing no added test compound were adjusted, before further use, with NaOH to have a pH in a range of ±0.2 from the pH of the control to which no test compound was added.
The sensory evaluation scores were as follows, the control to which no test compound was added, i.e. a 0.5 g/dL sodium chloride solution: 0 points; a 0.75 g/dL sodium chloride solution: 5 points. The sensory evaluation was conducted on a scale ranging from −5 to 0 to 5, with n=5. The “initial taste” refers to the taste perceived by each panelist from the start of eating the sample to 2 seconds thereafter, while the term “middle/after taste” refers to that perceived by each panelist from 2 seconds on and after eating the same, i.e. perceived during the period including both the middle taste and the after taste. For the scoring, a linear scale method was used. In this method, the score was marked as a position on a straight line showing positions for scores ranging from −5˜0˜5. The panelists were persons who were engaged in the development of seasonings for foods for one year or longer in total, and who were capable of determining that the difference in the potency between γ-Glu-Cys-Gly and γ-Glu-Val-Gly each added to a umami taste and salty taste solution was around 10 times, while confirming the ability of these persons at regular intervals.

[4] = 0.2 g/dL in water with MSG 0.05, IMP 0.05, NaCl 0.5 g/dL
[5] = 0.01 g/dL in water with MSG 0.05, IMP 0.05, NaCl 0.5 g/dL
[6] = γ-Glu-Val vs 50 ppm γ-Glu-Abu, individual panelists (Nos. 1-18), ascending order of presentation
[7] = γ-Glu-Val vs 50 ppm γ-Glu-Abu, individual panelists (Nos. 19-36), descending order of presentation
[8] = 0.002 g/dL in 0.5 g/dL NaCl, 0.5 g/dL NaCl = 0, 0.75 g/dL NaCl = 5, n=5

N[C@@H](CCC(=O)N[C@@H](CO)C(=O)O)C(=O)O [γ-Glu-Ser, γ-L-Glu-L-Ser]
Strength of Kokumi Impartment, Initial Taste (panelists [1]; [4]): 3.6 points | Strength of Kokumi Impartment, Middle/After Taste (panelists [1]; [4]): 3.0 points | Kokumi-imparting strength compared with γ-Glu-Val (in words) (panelists [1]): lower strength than γ-Glu-Val

CC(C)[C@H](NC(=O)CC[C@H](N)C(=O)O)C(=O)O [γ-Glu-Val, γ-L-Glu-L-Val]
Sensory Evaluation Profile (kokumi) (panelists [1]; 0.01 g/dL): The after taste was extremely weak. | Strength of Kokumi Impartment, Initial Taste (panelists [1]; [5]): 3.1 points | Strength of Kokumi Impartment, Middle/After Taste (panelists [1]; [5]): 2.4 points | PSE (point of subjective equality) of γ-Glu-Val to 50 ppm γ-Glu-Abu (panelists [2]; (lower + upper confidence threshold)/2): 121.9 ppm | γ-Glu-Val concentration (PSE) with the same strength as 0.0050 g/dL γ-Glu-Abu, estimated from number of panelists (Table 4) (panelists [2]; estimated from Table 4): 0.0100 g/dL | PSE calculated from upper and lower threshold concentrations of γ-Glu-Val (panelists [2]; vs 0.0050 g/dL γ-Glu-Abu): 0.0122 g/dL | No. of Panelists whose evaluation was such that the difference between γ-Glu-Val and γ-Glu-Abu (0.0050 g/dL) was uncertain (panelists [2]; γ-Glu-Val 0.0030 g/dL): 0 No. of panelists | No. of Panelists whose evaluation was such that γ-Glu-Val was weaker than γ-Glu-Abu (0.0050 g/dL) (panelists [2]; γ-Glu-Val 0.0030 g/dL): 36 No. of panelists | No. of Panelists whose evaluation was such that γ-Glu-Val was stronger than γ-Glu-Abu (0.0050 g/dL) (panelists [2]; γ-Glu-Val 0.0030 g/dL, 18 panelists, ascending and descending): 0 No. of panelists | No. of Panelists whose evaluation was such that the difference between γ-Glu-Val and γ-Glu-Abu (0.0050 g/dL) was uncertain (panelists [2]; γ-Glu-Val 0.0044 g/dL): 0 No. of panelists | No. of Panelists whose evaluation was such that γ-Glu-Val was stronger than γ-Glu-Abu (0.0050 g/dL) (panelists [2]; γ-Glu-Val 0.0044 g/dL): 1 No. of panelists | No. of Panelists whose evaluation was such that γ-Glu-Val was weaker than γ-Glu-Abu (0.0050 g/dL) (panelists [2]; γ-Glu-Val 0.0044 g/dL): 35 No. of panelists | No. of Panelists whose evaluation was such that the difference between γ-Glu-Val and γ-Glu-Abu (0.0050 g/dL) was uncertain (panelists [2]; γ-Glu-Val 0.0067 g/dL): 13 No. of panelists | No. of Panelists whose evaluation was such that γ-Glu-Val was stronger than γ-Glu-Abu (0.0050 g/dL) (panelists [2]; γ-Glu-Val 0.0067 g/dL): 3 No. of panelists | No. of Panelists whose evaluation was such that γ-Glu-Val was weaker than γ-Glu-Abu (0.0050 g/dL) (panelists [2]; γ-Glu-Val 0.0067 g/dL): 20 No. of panelists | No. of Panelists whose evaluation was such that the difference between γ-Glu-Val and γ-Glu-Abu (0.0050 g/dL) was uncertain (panelists [2]; γ-Glu-Val 0.0100 g/dL): 13 No. of panelists | No. of Panelists whose evaluation was such that γ-Glu-Val was stronger than γ-Glu-Abu (0.0050 g/dL) (panelists [2]; γ-Glu-Val 0.0100 g/dL): 11 No. of panelists | No. of Panelists whose evaluation was such that γ-Glu-Val was weaker than γ-Glu-Abu (0.0050 g/dL) (panelists [2]; γ-Glu-Val 0.0100 g/dL): 12 No. of panelists | No. of Panelists whose evaluation was such that the difference between γ-Glu-Val and γ-Glu-Abu (0.0050 g/dL) was uncertain (panelists [2]; γ-Glu-Val 0.0150 g/dL): 6 No. of panelists | No. of Panelists whose evaluation was such that γ-Glu-Val was stronger than γ-Glu-Abu (0.0050 g/dL) (panelists [2]; γ-Glu-Val 0.0150 g/dL): 25 No. of panelists | No. of Panelists whose evaluation was such that γ-Glu-Val was weaker than γ-Glu-Abu (0.0050 g/dL) (panelists [2]; γ-Glu-Val 0.0150 g/dL): 5 No. of panelists | No. of Panelists whose evaluation was such that the difference between γ-Glu-Val and γ-Glu-Abu (0.0050 g/dL) was uncertain (panelists [2]; γ-Glu-Val 0.0225 g/dL): 7 No. of panelists | No. of Panelists whose evaluation was such that γ-Glu-Val was stronger than γ-Glu-Abu (0.0050 g/dL) (panelists [2]; γ-Glu-Val 0.0225 g/dL): 28 No. of panelists | No. of Panelists whose evaluation was such that γ-Glu-Val was weaker than γ-Glu-Abu (0.0050 g/dL) (panelists [2]; γ-Glu-Val 0.0225 g/dL): 1 No. of panelists | No. of Panelists whose evaluation was such that the difference between γ-Glu-Val and γ-Glu-Abu (0.0050 g/dL) was uncertain (panelists [2]; γ-Glu-Val 0.0337 g/dL): 0 No. of panelists | No. of Panelists whose evaluation was such that γ-Glu-Val was stronger than γ-Glu-Abu (0.0050 g/dL) (panelists [2]; γ-Glu-Val 0.0337 g/dL): 36 No. of panelists | No. of Panelists whose evaluation was such that γ-Glu-Val was weaker than γ-Glu-Abu (0.0050 g/dL) (panelists [2]; γ-Glu-Val 0.0337 g/dL): 0 No. of panelists | Confidence Region (average), Lower Threshold (panelists [2]; γ-Glu-Val vs 50 ppm γ-Glu-Abu, average of the 36 lower thresholds): 94.5 ppm | Confidence Region (average), Upper Threshold (panelists [2]; γ-Glu-Val vs 50 ppm γ-Glu-Abu, average of the 36 upper thresholds): 149.3 ppm | Lower Threshold at which each panelist determined that the concentrations were the same (panelists [2]; [6]): 55.5 ppm and 125.0 ppm and 37.0 ppm and 83.5 ppm and 187.5 ppm | Upper Threshold at which each panelist determined that the concentrations were the same (panelists [2]; [6]): 55.5 ppm and 125.0 ppm and 187.5 ppm and 37.0 ppm and 281.0 ppm and 83.5 ppm | Lower Threshold at which each panelist determined that the concentrations were the same (panelists [2]; [7]): 125.0 ppm (3×) and 83.5 ppm (5×) and 187.5 ppm (3×) and 55.5 ppm (5×) and 56.0 ppm and 281.0 ppm | Upper Threshold at which each panelist determined that the concentrations were the same (panelists [2]; [7]): 125.0 ppm (7×) and 281.0 ppm (5×) and 187.5 ppm (2×) and 83.5 ppm (4×)

C[C@H](NC(=O)CC[C@H](N)C(=O)O)C(=O)O [γ-Glu-Ala, γ-L-Glu-L-Ala]
Strength of Kokumi Impartment, Initial Taste (panelists [1]; [4]): 4.5 points | Strength of Kokumi Impartment, Middle/After Taste (panelists [1]; [4]): 4.3 points | Kokumi-imparting strength compared with γ-Glu-Val (in words) (panelists [1]): lower strength than γ-Glu-Val

N[C@@H](CCC(=O)N[C@@H](CS)C(=O)O)C(=O)O [γ-Glu-Cys, γ-L-Glu-L-Cys]
Strength of Kokumi Impartment, Initial Taste (panelists [1]; [5]): 3.1 points | Strength of Kokumi Impartment, Middle/After Taste (panelists [1]; [5]): 3.1 points | Kokumi-imparting strength compared with γ-Glu-Val (in words) (panelists [1]): strong effect approximately the same as that of γ-Glu-Val

[γGlu]-Val-Gly
Strength of Salty Taste Impartment, Initial Taste (panelists [3]; [8]): 0.8 points | Strength of Salty Taste Impartment, Middle/After Taste (panelists [3]; [8]): 1.8 points | Salty taste enhancement ability (in words) (panelists [3]; comparison of γ-Glu-Val-Gly and γ-Glu-Abu): higher taste-imparting strength than γ-Glu-Abu; also recorded: remarkably disturbs the balance of the salty taste

Reference: patent publication US9844226B2 (AJINOMOTO CO., INC., priority 2009, dated 2017)
